# Source: ChEMBL document CHEMBL3112512, “Microwave induced three-component synthesis and antimycobacterial activity of benzopyrazolo[3,4-b]quinolindiones” (2014)
# How the values were obtained:
# Assay type in all cases: functional
# [1] = system: Mycobacterium tuberculosis; assay: Antimycobacterial activity against isoniazid and rifampicin-resistant Mycobacterium tuberculosis MTB4000 clinical isolate by MTT assay
# [2] = system: Mycobacterium tuberculosis; assay: Antimycobacterial activity against isoniazid and rifampicin-resistant Mycobacterium tuberculosis MTB411 clinical isolate by MTT assay
# [3] = system: Mycobacterium tuberculosis; assay: Antimycobacterial activity against rifampicin-resistant Mycobacterium tuberculosis H37Rv ATCC 35838 by MTT assay
# [4] = system: Mycobacterium tuberculosis; assay: Antimycobacterial activity against streptomycin-resistant Mycobacterium tuberculosis H37Rv ATCC 35820 by MTT assay
# [5] = system: Mycobacterium tuberculosis; assay: Antimycobacterial activity against isoniazid and rifampicin-resistant Mycobacterium tuberculosis UT544 clinical isolate by MTT assay
# [6] = system: Mycobacterium tuberculosis; assay: Antimycobacterial activity against isoniazid and rifampicin-resistant Mycobacterium tuberculosis MTB2556 clinical isolate by MTT assay
# [7] = system: Mycobacterium tuberculosis; assay: Antimycobacterial activity against isoniazid-resistant Mycobacterium tuberculosis H37Rv ATCC 35822 by MTT assay
# [8] = system: Mycobacterium tuberculosis; assay: Antimycobacterial activity against isoniazid and rifampicin-resistant Mycobacterium tuberculosis MTB985 clinical isolate by MTT assay
# [9] = system: Mycobacterium tuberculosis; assay: Antimycobacterial activity against ethambutol-resistant Mycobacterium tuberculosis H37Rv ATCC 35837 by MTT assay
Structure (SMILES),MIC [1] [µg/mL],MIC [2] [µg/mL],MIC [3] [µg/mL],MIC [4] [µg/mL],MIC [5] [µg/mL],MIC [6] [µg/mL],MIC [7] [µg/mL],MIC [8] [µg/mL],MIC [9] [µg/mL]
CO[C@H]1/C=C/O[C@@]2(C)Oc3c(C)c(O)c4c(O)c(c(/C=N/N5CCN(C)CC5)c(O)c4c3C2=O)NC(=O)/C(C)=C\C=C\[C@H](C)[C@H](O)[C@@H](C)[C@@H](O)[C@@H](C)[C@H](OC(C)=O)[C@@H]1C [RIFAMPIN],> 0.5,> 0.5,> 0.5,0.125,> 0.5,> 0.5,0.125,> 0.5,0.125
O=C1C(=O)c2ccccc2C2=C1C(c1ccccc1)c1c(-c3ccccc3)n[nH]c1N2 (stereo not given),> 32,> 32,> 32,> 32,> 32,> 32,> 32,> 32,> 32
O=C1C(=O)c2ccccc2C2=C1C(c1ccccc1)c1c(-c3ccc(Cl)cc3)n[nH]c1N2 (stereo not given),> 32,> 32,> 32,> 32,> 32,> 32,> 32,> 32,> 32
COc1cc(-c2c3c(nc4c2c(C)nn4-c2ccccc2)-c2ccccc2C(=O)C3=O)cc(OC)c1OC,> 32,> 32,> 32,> 32,> 32,> 32,> 32,> 32,> 32
Cc1nn(-c2ccccc2)c2nc3c(c(-c4ccccc4)c12)C(=O)C(=O)c1ccccc1-3,≤ 2,4,≤ 2,≤ 2,≤ 2,≤ 2,≤ 2,≤ 2,≤ 2
Cc1ccc(-c2n[nH]c3c2C(c2ccccc2)C2=C(N3)c3ccccc3C(=O)C2=O)cc1 (stereo not given),16,16,4,16,16,16,16,16,16
O=C1C(=O)c2ccccc2C2=C1C(c1ccccc1)c1c(-c3ccc([N+](=O)[O-])cc3)n[nH]c1N2 (stereo not given),16,16,16,16,8,8,16,8,> 32
COc1ccc(C2C3=C(Nc4[nH]nc(-c5ccccc5)c42)c2ccccc2C(=O)C3=O)cc1 (stereo not given),> 32,> 32,> 32,> 32,> 32,> 32,> 32,> 32,> 32
NNC(=O)c1ccncc1 [ISONIAZID],> 0.5,> 0.5,0.25,0.25,> 0.5,> 0.5,> 0.5,> 0.5,0.25
Cc1ccc(-c2c3c(nc4c2c(C)nn4-c2ccccc2)-c2ccccc2C(=O)C3=O)cc1,≤ 2,4,4,≤ 2,≤ 2,≤ 2,≤ 2,≤ 2,4
Cc1ccc(C2C3=C(Nc4[nH]nc(-c5ccccc5)c42)c2ccccc2C(=O)C3=O)cc1 (stereo not given),> 32,> 32,> 32,> 32,> 32,> 32,> 32,> 32,> 32
COc1ccc(-c2c3c(nc4[nH]nc(-c5ccc(Cl)cc5)c24)-c2ccccc2C(=O)C3=O)cc1,16,16,16,16,8,8,> 32,16,> 32
Cc1ccc(-c2n[nH]c3nc4c(c(-c5ccc([N+](=O)[O-])cc5)c23)C(=O)C(=O)c2ccccc2-4)cc1,> 32,> 32,> 32,> 32,> 32,> 32,> 32,> 32,> 32
Cc1nn(-c2ccccc2)c2nc3c(c(-c4ccc(Cl)cc4)c12)C(=O)C(=O)c1ccccc1-3,> 32,> 32,> 32,> 32,> 32,> 32,> 32,> 32,> 32
Cc1nn(-c2ccccc2)c2nc3c(c(-c4ccc(F)cc4)c12)C(=O)C(=O)c1ccccc1-3,≤ 2,4,4,≤ 2,≤ 2,≤ 2,≤ 2,≤ 2,4
